These results are taken from patent US11759455B2, “Substituted 1H-imidazo[4,5-b]pyridin-2(3H)-ones and their use as GLUN2B receptor modulators” (JANSSEN PHARMACEUTICA NV, priority 2016, dated 2023).

A word on the IC50: it is the concentration that gives 50% inhibition.

Structures are written as SMILES.

In one assay the target is T1, human GluN1/GluN2B NMDA receptors (Homo sapiens, UniProt Q05586+Q13224).
T1 construct: expressed in transfected cells
T1 sequence (Q13224 27-1484, other chains not shown): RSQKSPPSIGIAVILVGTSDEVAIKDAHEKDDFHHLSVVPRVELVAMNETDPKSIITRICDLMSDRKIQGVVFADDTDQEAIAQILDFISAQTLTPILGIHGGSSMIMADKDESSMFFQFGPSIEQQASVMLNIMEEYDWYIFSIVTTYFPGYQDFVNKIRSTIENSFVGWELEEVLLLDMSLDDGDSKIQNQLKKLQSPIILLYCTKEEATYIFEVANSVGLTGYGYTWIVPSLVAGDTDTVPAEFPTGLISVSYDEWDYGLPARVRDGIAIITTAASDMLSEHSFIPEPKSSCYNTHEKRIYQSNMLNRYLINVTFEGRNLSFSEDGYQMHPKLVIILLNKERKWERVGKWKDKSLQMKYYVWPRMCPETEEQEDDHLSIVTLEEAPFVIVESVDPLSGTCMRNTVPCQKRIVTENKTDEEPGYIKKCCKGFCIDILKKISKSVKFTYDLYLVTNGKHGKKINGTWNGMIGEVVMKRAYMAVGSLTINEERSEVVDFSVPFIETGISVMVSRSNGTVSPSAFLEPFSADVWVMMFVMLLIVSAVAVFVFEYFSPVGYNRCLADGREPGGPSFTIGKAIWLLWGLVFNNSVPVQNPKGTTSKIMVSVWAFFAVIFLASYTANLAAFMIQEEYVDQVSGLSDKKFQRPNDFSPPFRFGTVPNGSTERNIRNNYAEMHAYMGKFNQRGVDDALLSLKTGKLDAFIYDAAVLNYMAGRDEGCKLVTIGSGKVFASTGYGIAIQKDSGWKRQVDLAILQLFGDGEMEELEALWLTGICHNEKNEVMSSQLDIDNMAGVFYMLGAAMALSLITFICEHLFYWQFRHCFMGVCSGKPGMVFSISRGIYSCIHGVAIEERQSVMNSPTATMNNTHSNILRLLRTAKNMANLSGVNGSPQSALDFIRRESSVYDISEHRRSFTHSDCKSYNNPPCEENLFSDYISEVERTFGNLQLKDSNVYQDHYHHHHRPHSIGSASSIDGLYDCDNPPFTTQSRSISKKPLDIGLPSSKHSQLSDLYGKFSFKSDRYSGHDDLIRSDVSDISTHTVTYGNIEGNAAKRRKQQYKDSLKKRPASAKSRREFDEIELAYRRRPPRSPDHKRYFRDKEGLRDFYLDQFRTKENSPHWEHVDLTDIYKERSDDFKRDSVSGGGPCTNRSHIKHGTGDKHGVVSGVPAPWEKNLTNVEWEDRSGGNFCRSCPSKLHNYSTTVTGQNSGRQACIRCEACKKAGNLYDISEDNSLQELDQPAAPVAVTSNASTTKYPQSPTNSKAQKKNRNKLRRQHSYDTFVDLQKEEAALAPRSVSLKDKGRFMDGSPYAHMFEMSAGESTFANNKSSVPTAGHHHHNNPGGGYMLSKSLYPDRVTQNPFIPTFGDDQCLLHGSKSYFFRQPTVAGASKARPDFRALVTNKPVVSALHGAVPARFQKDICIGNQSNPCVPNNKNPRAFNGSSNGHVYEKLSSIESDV
Description: Cell-based calcium flux (FLIPR) assay on cloned human NR1/NR2B ion channels expressed in mammalian cells (standard and HTS buffer variants).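 Also: stable Tet-On inducible cell line, Ca2+ influx triggered by glutamate at about EC40 plus 10 µM glycine, fluorescent dye read-out over 5 min, normalized to control wells.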 The following applies: standard assay buffer (0.5 mM MgCl2 dye loading; 137 mM NaCl, 4 mM KCl assay buffer), human GluN1/GluN2B cells, read-out: NR2B IC50 (μM) standard assay. In general terms: A change in cytosolic calcium serves as a functional read-out for many receptors and channels.
Take `O=c1[nH]c2ncc(-c3cccc(C(F)(F)F)c3)cc2n1CC1CCCO1` (racemic) [Example 24, (R/S)-1-(Tetrahydrofuran-2-ylmethyl)-6-[3-(trifluoromethyl)phenyl]-3H-imidazo[4,5-b]pyridin-2-one]: the IC50 is 0.127 µM.

On to `O=c1[nH]c2ncc(-c3cccc(C(F)(F)F)c3)cc2n1CC(O)C1CC1` (racemic) [Example 31, (R/S)-1-(2-Cyclopropyl-2-hydroxy-ethyl)-6-[3-(trifluoromethyl)phenyl]-3H-imidazo[4,5-b]pyridin-2-one], for which the IC50 was 0.151 µM.

Turning to `Cc1cc(F)ccc1-c1cnc2c(c1)n(CC1CCO1)c(=O)n2C` (racemic) [Example 33, (R/S)-6-(4-Fluoro-2-methyl-phenyl)-3-methyl-1-(oxetan-2-ylmethyl)imidazo[4,5-b]pyridin-2-one], the IC50 worked out at 1.23 µM.

For `Cn1c(=O)n(CC2CCO2)c2cc(-c3cccc(C(F)(F)F)c3)cnc21` (racemic) [Example 133, (R/S)-3-methyl-1-(oxetan-2-ylmethyl)-6-[3-(trifluoromethyl)phenyl]imidazo[4,5-b]pyridin-2-one], the IC50 amounted to 0.211 µM.

For `CC(C(=O)NC1CC1)n1c(=O)[nH]c2ncc(-c3cccc(C(F)(F)F)c3)cc21` (racemic) [Example 202, (R/S)—N-Cyclopropyl-2-[2-oxo-6-[3-(trifluoromethyl)phenyl]-3H-imidazo[4,5-b]pyridin-1-yl]propanamide], the IC50 was determined as 7.32 µM.

On to `CC(C(=O)N1CCC1)n1c(=O)[nH]c2ncc(-c3cccc(C(F)(F)F)c3)cc21` (racemic) [Example 203, (R/S)-1-[2-(Azetidin-1-yl)-1-methyl-2-oxo-ethyl]-6-[3-(trifluoromethyl)phenyl]-3H-imidazo[4,5-1D]pyridin-2-one], for which the IC50 was 1.1 µM.

As to `O=c1[nH]c2ncc(-c3cccc(C(F)(F)F)c3)cc2n1CC1CCO1` (racemic) [Example 216, (R/S)-1-(Oxetan-2-ylmethyl)-6-[3-(trifluoromethyl)phenyl]-3H-imidazo[4,5-b]pyridin-2-one], the IC50 worked out at 0.034 µM.

In the case of `O=c1[nH]c2ncc(-c3cccc(C(F)(F)F)c3)cc2n1CC1CNCCO1` (racemic) [Example 217, (R/S)-1-(Morpholin-2-ylmethyl)-6-[3-(trifluoromethyl)phenyl]-3H-imidazo[4,5-b]pyridin-2-one], the IC50 was 6.49 µM.

Consider `O=c1[nH]c2ncc(-c3cccc(C(F)(F)F)c3)cc2n1CC1CCCCO1` (racemic) [Example 218, (R/S)-1-(Tetrahydropyran-2-ylmethyl)-6-[3-(trifluoromethyl)phenyl]-3H-imidazo[4,5-b]pyridin-2-one], for which the IC50 stood at 0.552 µM.

On to `O=c1[nH]c2ncc(-c3cccc(C(F)(F)F)c3)cc2n1CC1CC1(F)F` (racemic) [Example 225, (R/S)-1-[(2,2-Difluorocyclopropyl)methyl]-6-[3-(trifluoromethyl)phenyl]-3H-imidazo[4,5-b]pyridin-2-one], for which the IC50 was 0.4 µM.

On to `Cn1c(=O)n(CC2CCN2)c2cc(-c3cccc(C(F)(F)F)c3)cnc21` (racemic) [Example 245, (R/S)-1-(Azetidin-2-ylmethyl)-3-methyl-6-[3-(trifluoromethyl)phenyl]imidazo[4,5-b]pyridin-2-one], for which the IC50 came out at 0.409 µM.

In the case of `O=c1[nH]c2ncc(-c3cccc(C(F)(F)F)c3)cc2n1CC1CCN1` (racemic) [Example 263, (R/S)-1-(Azetidin-2-ylmethyl)-6-[3-(trifluoromethyl)phenyl]-3H-imidazo[4,5-b]pyridin-2-one], the IC50 was 0.063 µM.

In the case of `O=c1[nH]c2ncc(-c3cccc(C(F)(F)F)c3F)cc2n1CC1CCN1` (racemic) [Example 264, (R/S)-1-(Azetidin-2-ylmethyl)-6-[2-fluoro-3-(trifluoromethyl)phenyl]-3H-imidazo[4,5-b]pyridin-2-one], the IC50 was 0.044 µM.

Consider `O=c1[nH]c2ncc(-c3ccccc3)cc2n1CC1CCN1` (racemic) [Example 265, (R/S)-1-(Azetidin-2-ylmethyl)-6-phenyl-3H-imidazo[4,5-b]pyridin-2-one], for which the half-inhibitory concentration (IC50) is 0.397 µM.

Consider `O=c1[nH]c2ncc(-c3ccc(F)cc3)cc2n1CC1CCN1` (racemic) [Example 266, (R/S)-1-(Azetidin-2-ylmethyl)-6-(4-fluorophenyl)-3H-imidazo[4,5-b]pyridin-2-one], for which the IC50 came out at 0.173 µM.

Take `O=c1[nH]c2ncc(-c3ccc(F)c(C(F)(F)F)c3)cc2n1CC1CCN1` (racemic) [Example 267, (R/S)-1-(Azetidin-2-ylmethyl)-6-[4-fluoro-3-(trifluoromethyl)phenyl]-3H-imidazo[4,5-b]pyridin-2-one]: the IC50 turned out to be 0.442 µM.

For the compound `O=c1[nH]c2ncc(-c3cccc(Cl)c3Cl)cc2n1CC1CCN1` (racemic) [Example 268, (R/S)-1-(Azetidin-2-ylmethyl)-6-(2,3-dichlorophenyl)-3H-imidazo[4,5-b]pyridin-2-one], the IC50 was found to be 0.041 µM.

As for `O=c1[nH]c2ncc(-c3ccc(F)c(C(F)(F)F)c3)cc2n1CC1CCO1` (racemic) [Example 271, (R/S)-6-[4-Fluoro-3-(trifluoromethyl)phenyl]-1-(oxetan-2-ylmethyl)-3H-imidazo[4,5-b]pyridin-2-one], the half-maximal inhibitory concentration (IC50) was 0.046 µM.

The assay is the same for the next values; noted with them: standard assay buffer (0.5 mM MgCl2 in dye loading buffer; 137 mM NaCl, 4 mM KCl in assay buffer), human GluN1/GluN2B, read-out: NR2B IC50 (μM) standard assay.
On to `CCC(O)Cn1c(=O)n(C)c2ncc(-c3ccc(F)c(F)c3)cc21` (racemic) [Example 333, (R/S)-6-(3,4-Difluorophenyl)-1-(2-hydroxybutyl)-3-methyl-imidazo[4,5-b]pyridin-2-one], for which the half-inhibitory concentration (IC50) is 1.9 µM.

As to `CCC(O)Cn1c(=O)[nH]c2ncc(-c3ccc(F)c(C)c3)cc21` (racemic) [Example 334, (R/S)-6-(4-Fluoro-3-methyl-phenyl)-1-(2-hydroxybutyl)-3H-imidazo[4,5-b]pyridin-2-one], the concentration for half-maximal inhibition (IC50) was determined as 0.031 µM.

In the case of `CCC(O)Cn1c(=O)[nH]c2ncc(-c3cccc(C)c3)cc21` (racemic) [Example 335, (R/S)-1-(2-Hydroxybutyl)-6-(m-tolyl)-3H-imidazo[4,5-b]pyridin-2-one], the IC50 was found to be 0.054 µM.

`CCC(O)Cn1c(=O)[nH]c2ncc(-c3ccc(F)c(C)c3F)cc21` (racemic) [Example 336, (R/S)-6-(2,4-Difluoro-3-methyl-phenyl)-1-(2-hydroxybutyl)-3H-imidazo[4,5-b]pyridin-2-one]: the IC50 turned out to be 0.015 µM.

For `CCC(O)Cn1c(=O)[nH]c2ncc(-c3cccc(C(F)(F)F)c3)cc21` (racemic) [Example 337, (R/S)-1-(2-Hydroxybutyl)-6-[3-(trifluoromethyl)phenyl]-3H-imidazo[4,5-b]pyridin-2-one], the IC50 was 0.119 µM.

With `CC(C)C(O)Cn1c(=O)[nH]c2ncc(-c3cccc(C(F)(F)F)c3)cc21` (racemic) [Example 338, (R/S)-1-(2-Hydroxy-3-methyl-butyl)-6-[3-(trifluoromethyl)phenyl]-3H-imidazo[4,5-b]pyridin-2-one], the IC50 came out at 0.687 µM.

Turning to `COCCC(O)Cn1c(=O)n(C)c2ncc(-c3ccc(F)c(C)c3)cc21` (racemic) [Example 393, (R/S)-6-(4-Fluoro-3-methyl-phenyl)-1-(2-hydroxy-4-methoxy-butyl)-3-methyl-imidazo[4,5-b]pyridin-2-one], the IC50 came out at 0.486 µM.

As for `Cn1c(=O)n(CC2CCO2)c2cc(-c3cccc(C(F)F)c3)cnc21` (racemic) [Example 394, (R/S)-6-[3-(Difluoromethyl)phenyl]-3-methyl-1-(oxetan-2-ylmethyl)imidazo [4,5-b]pyridin-2-one], the IC50 stood at 0.128 µM.

As for `Cc1cc(-c2cnc3c(c2)n(CC2CCO2)c(=O)n3C)ccc1F` (racemic) [Example 395, (R/S)-6-(4-Fluoro-3-methyl-phenyl)-3-methyl-1-(oxetan-2-ylmethyl)imidazo[4,5-b]pyridin-2-one], the IC50 amounted to 1.2 µM.

As to `Cn1c(=O)n(CC2CCO2)c2cc(-c3cccc(C(F)(F)F)c3F)cnc21` (racemic) [Example 396, (R/S)-6-[2-Fluoro-3-(trifluoromethyl)phenyl]-3-methyl-1-(oxetan-2-ylmethyl)imidazo[4,5-b]pyridin-2-one], the 50% inhibitory concentration (IC50) was determined as 0.135 µM.

The target of a further assay is T2, human GluN1/GluN2B NMDA receptors (Homo sapiens, UniProt Q13224).
T2 construct: expressed in transfected cells
T2 sequence (Q13224 27-1484, other chains not shown): as above
The description is as above. The conditions noted are these: standard assay buffer (0.5 mM MgCl2 in dye loading buffer; 137 mM NaCl, 4 mM KCl in assay buffer), human GluN1/GluN2B, read-out: NR2B IC50 (μM) standard assay.
In the case of `COc1cccc(-c2cnc3[nH]c(=O)n(CC(=O)c4cccs4)c3c2)c1` [Example 602, 6-(3-Methoxyphenyl)-1-[2-oxo-2-(2-thienyl)ethyl]-3H-imidazo[4,5-b]pyridin-2-one], the half-maximal inhibitory concentration (IC50) worked out at 0.204 µM.

Regarding `CCOc1ccccc1-c1cnc2[nH]c(=O)n(Cc3cccc(OC)c3)c2c1` [Example 605, 6-(2-Ethoxyphenyl)-1-[(3-methoxyphenyl)methyl]-3H-imidazo[4,5-b]pyridin-2-one], the IC50 was 2.09 µM.

On to `CCOc1ccccc1-c1cnc2[nH]c(=O)n(Cc3ccc(F)cc3)c2c1` [Example 606, 6-(2-Ethoxyphenyl)-1-[(4-fluorophenyl)methyl]-3H-imidazo[4,5-b]pyridin-2-one], for which the half-maximal inhibitory concentration (IC50) stood at 2.18 µM.

`CCOc1ccc(F)cc1-c1cnc2[nH]c(=O)n(CC(=O)NC3CC3)c2c1` [Example 607, N-Cyclopropyl-2-[6-(2-ethoxy-5-fluoro-phenyl)-2-oxo-3H-imidazo[4,5-b]pyridin-1-yl]acetamide]: the IC50 is 0.336 µM.

For the compound `COCCNC(=O)Cn1c(=O)[nH]c2ncc(-c3cc(F)cc(F)c3)cc21` [Example 610, 2-[6-(3,5-Difluorophenyl)-2-oxo-3H-imidazo[4,5-b]pyridin-1-yl]-N-(2-methoxyethyl)acetamide], the IC50 is 1.79 µM.

`CC(C)(C)C(=O)Cn1c(=O)[nH]c2ncc(-c3cccc(C(F)(F)F)c3)cc21` [Example 611, 1-(3,3-Dimethyl-2-oxo-butyl)-6-[3-(trifluoromethyl)phenyl]-3H-imidazo[4,5-b]pyridin-2-one]: the IC50 was 0.204 µM.

Turning to `COCCNC(=O)Cn1c(=O)[nH]c2ncc(-c3ccc(F)c(Cl)c3)cc21` [Example 612, 2-[6-(3-Chloro-4-fluoro-phenyl)-2-oxo-3H-imidazo[4,5-b]pyridin-1-yl]-N-(2-methoxyethyl)acetamide], the IC50 stood at 0.116 µM.
